In PubChem BioAssay AID192 (DTP/NCI, 2004):
Values joined by “and” are separate entries in the source; they are usually repeats but may differ in a detail not shown here. Identical values can stand only once. Toxic doses and inconclusive results are not listed.

Tested on: BDF1 mice, B16 melanoma ip, median survival T/C
Test: NCI In Vivo Anticancer Drug Screen. Data for tumor model B16 Melanoma (intraperitoneal) in B6D2F1 (BDF1) mice
Details: endpoint: median survival time, higher = longer survival
Outline: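 Mice with transplantable tumors; drug vs vehicle groups; endpoint survival or tumor size; value = T/C.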

[1] = dose: 100.0 mg/kg/injection, schedule: Q01DX009 (ip), vehicle: Klucel (hydroxypropylcellulose) (HPC)
[2] = dose: 200.0 mg/kg/injection, schedule: Q01DX009 (ip), vehicle: Klucel (hydroxypropylcellulose) (HPC)
[3] = dose: 400.0 mg/kg/injection, schedule: Q01DX009 (ip), vehicle: Klucel (hydroxypropylcellulose) (HPC)
[4] = dose: 100.0 mg/kg/injection, schedule: Q01DX009 (ip), vehicle: other
[5] = dose: 50.0 mg/kg/injection, schedule: Q01DX009 (ip), vehicle: Klucel (hydroxypropylcellulose) (HPC)
[6] = dose: 25.0 mg/kg/injection, schedule: Q01DX009 (ip), vehicle: saline with Tween-80
[7] = dose: 50.0 mg/kg/injection, schedule: Q01DX009 (ip), vehicle: saline with Tween-80
[8] = dose: 100.0 mg/kg/injection, schedule: Q01DX009 (ip), vehicle: saline with Tween-80
[9] = dose: 200.0 mg/kg/injection, schedule: Q01DX009 (ip), vehicle: saline with Tween-80
[10] = dose: 100.0 mg/kg/injection, schedule: Q01DX009 (ip), vehicle: saline
[11] = dose: 25.0 mg/kg/injection, schedule: Q01DX009 (ip), vehicle: Klucel (hydroxypropylcellulose) (HPC)
[12] = dose: 12.5 mg/kg/injection, schedule: Q01DX009 (ip), vehicle: saline with Tween-80

In the case of `OCCN1CCN(CCCN2c3ccccc3CCc3ccccc32)CC1`, the T/C (dose: 3.9 mg/kg/injection, schedule: Q01DX009 (ip), vehicle: saline) was 95 % of control, the T/C (dose: 7.81 mg/kg/injection, schedule: Q01DX009 (ip), vehicle: saline) was 93 % of control and the T/C (dose: 15.62 mg/kg/injection, schedule: Q01DX009 (ip), vehicle: saline) was 100 % of control. The T/C (dose: 31.25 mg/kg/injection, schedule: Q01DX009 (ip), vehicle: saline) was 97 % of control and the T/C (dose: 62.5 mg/kg/injection, schedule: Q01DX009 (ip), vehicle: saline) was 95 % of control.

`CCCCCCCCCC(O)CC` (centres undefined) was tested, and the T/C [1] was 98 % of control, the T/C [2] was 96 % of control and the T/C [3] was 100 % of control.

`Cc1[nH]c(=O)[nH]c(=O)c1C` was tested, and the T/C (dose: 50.0 mg/kg/injection, schedule: Q04DX003 (ip), vehicle: Klucel (hydroxypropylcellulose) (HPC)) was 88 % of control, the T/C [1] was 88 % of control and the T/C (dose: 100.0 mg/kg/injection, schedule: Q04DX003 (ip), vehicle: Klucel (hydroxypropylcellulose) (HPC)) was 97 % of control. For the same compound, the T/C [2] was 91 % of control and the T/C (dose: 200.0 mg/kg/injection, schedule: Q04DX003 (ip), vehicle: Klucel (hydroxypropylcellulose) (HPC)) was 91 % of control.

In the case of `O=C(CCl)N1c2ccccc2Sc2ccc(Cl)cc21`, the T/C (dose: 6.25 mg/kg/injection, schedule: Q01DX009 (ip), vehicle: other) was 107 % of control, the T/C (dose: 12.5 mg/kg/injection, schedule: Q01DX009 (ip), vehicle: other) was 100 % of control and the T/C (dose: 25.0 mg/kg/injection, schedule: Q01DX009 (ip), vehicle: other) was 100 % of control. For the same compound, the T/C (dose: 50.0 mg/kg/injection, schedule: Q01DX009 (ip), vehicle: other) was 94 % of control and the T/C [4] was 87 % of control.

`CNc1ccccc1Cc1ccccc1` was tested, and the T/C [5] was 103 % of control, the T/C [1] was 90 % of control and the T/C [2] was 99 % of control.

In the case of `CCN(CC)CCC1CCNCC1`, the T/C (dose: 6.25 mg/kg/injection, schedule: Q01DX009 (ip), vehicle: saline) was 112 % of control, the T/C (dose: 12.5 mg/kg/injection, schedule: Q01DX009 (ip), vehicle: saline) was 112 % of control and the T/C (dose: 25.0 mg/kg/injection, schedule: Q01DX009 (ip), vehicle: saline) was 106 % of control.

`O=NN(CCCl)C(=O)NC1CCCCC1` was tested, and the T/C (dose: 4.0 mg/kg/injection, schedule: Q01DX001 (ip), vehicle: Klucel (hydroxypropylcellulose) (HPC)) was 102 % of control and 121 % of control, the T/C (dose: 4.0 mg/kg/injection, schedule: Q01DX001 (ip), vehicle: saline) was 107 % of control and the T/C (dose: 7.5 mg/kg/injection, schedule: Q01DX001 (ip), vehicle: other) was 107 % of control. The T/C (dose: 8.0 mg/kg/injection, schedule: Q01DX001 (ip), vehicle: Klucel (hydroxypropylcellulose) (HPC)) was 102 % of control, the T/C (dose: 12.5 mg/kg/injection, schedule: Q01DX010 (ip), vehicle: saline) was 115 % of control and the T/C (dose: 25.0 mg/kg/injection, schedule: Q01DX010 (ip), vehicle: saline) was 110 % of control. For the same compound, the T/C (dose: 30.0 mg/kg/injection, schedule: Q01DX001 (ip), vehicle: other) was 198 % of control, the T/C (dose: 32.0 mg/kg/injection, schedule: Q01DX001 (ip), vehicle: Klucel (hydroxypropylcellulose) (HPC)) was 182 % of control and 312 % of control and the T/C (dose: 50.0 mg/kg/injection, schedule: Q01DX010 (ip), vehicle: saline) was 113 % of control. For the same compound, the T/C (dose: 100.0 mg/kg/injection, schedule: Q01DX010 (ip), vehicle: saline) was 102 % of control.

In the case of `Nc1ccc(OCc2ccccc2)cc1`, the T/C [6] was 109 % of control.

`Nc1ncnc2sc3c(c12)CCCC3` was tested, and the T/C [1] was 100 % of control, the T/C [2] was 101 % of control and the T/C [3] was 110 % of control.

For `NNS(=O)(=O)c1ccc(OCC(=O)O)cc1`, the T/C [1] was 98 % of control, the T/C [2] was 97 % of control and the T/C [3] was 93 % of control.

For `O=C(O)CCC(=O)CCC(=O)c1ccccc1`, the T/C [7] was 95 % of control, the T/C [8] was 100 % of control and the T/C [9] was 93 % of control.

`BrCC(Br)CBr` was tested, and the T/C [6] was 92 % of control, the T/C [7] was 90 % of control and the T/C [8] was 90 % of control.

In the case of `CC1CCC(O)C1O` (centres undefined), the T/C [10] was 120 % of control, the T/C (dose: 200.0 mg/kg/injection, schedule: Q01DX009 (ip), vehicle: saline) was 120 % of control and the T/C (dose: 400.0 mg/kg/injection, schedule: Q01DX009 (ip), vehicle: saline) was 122 % of control.

In the case of `O=C(O)c1ccc(Nc2c3ccccc3nc3ccccc23)cc1`, the T/C (dose: 8.0 mg/kg/injection, schedule: Q01DX009 (ip), vehicle: other) was 103 % of control, the T/C (dose: 12.0 mg/kg/injection, schedule: Q01DX009 (ip), vehicle: other) was 117 % of control and the T/C (dose: 13.0 mg/kg/injection, schedule: Q01DX009 (ip), vehicle: saline with Tween-80) was 119 % of control. The T/C (dose: 28.0 mg/kg/injection, schedule: Q01DX009 (ip), vehicle: other) was 117 % of control, the T/C (dose: 42.0 mg/kg/injection, schedule: Q01DX009 (ip), vehicle: other) was 160 % of control and the T/C (dose: 44.0 mg/kg/injection, schedule: Q01DX009 (ip), vehicle: Klucel (hydroxypropylcellulose) (HPC)) was 169 % of control. The T/C (dose: 44.0 mg/kg/injection, schedule: Q01DX009 (ip), vehicle: saline with Tween-80) was 156 % of control.

In the case of `CCC(C)Nc1ccc(N)cc1` (centres undefined), the T/C (dose: 0.09 mg/kg/injection, schedule: Q01DX009 (ip), vehicle: Klucel (hydroxypropylcellulose) (HPC)) was 97 % of control, the T/C (dose: 0.18 mg/kg/injection, schedule: Q01DX009 (ip), vehicle: Klucel (hydroxypropylcellulose) (HPC)) was 99 % of control and the T/C (dose: 0.37 mg/kg/injection, schedule: Q01DX009 (ip), vehicle: Klucel (hydroxypropylcellulose) (HPC)) was 89 % of control. For the same compound, the T/C (dose: 0.75 mg/kg/injection, schedule: Q01DX009 (ip), vehicle: Klucel (hydroxypropylcellulose) (HPC)) was 99 % of control.

`Cn1cnc([N+](=O)[O-])c1S(=O)(=O)NCN1CCOCC1` was tested, and the T/C (dose: 12.5 mg/kg/injection, schedule: Q01DX009 (ip), vehicle: Klucel (hydroxypropylcellulose) (HPC)) was 98 % of control, the T/C [11] was 96 % of control and the T/C [5] was 97 % of control. For the same compound, the T/C [1] was 94 % of control.

`CCCCNC(C)(C)C(SS)c1ccco1` (centres undefined) was tested, and the T/C (dose: 3.0 mg/kg/injection, schedule: Q01DX009 (ip), vehicle: alcohol) was 107 % of control, the T/C (dose: 6.0 mg/kg/injection, schedule: Q01DX009 (ip), vehicle: alcohol) was 107 % of control and the T/C (dose: 12.0 mg/kg/injection, schedule: Q01DX009 (ip), vehicle: alcohol) was 112 % of control. The T/C (dose: 37.5 mg/kg/injection, schedule: Q01DX009 (ip), vehicle: saline) was 87 % of control and the T/C (dose: 55.0 mg/kg/injection, schedule: Q01DX009 (ip), vehicle: saline) was 106 % of control.

With `CCS(=O)(=O)Nc1cccc(Nc2c3cccc(C)c3nc3c(C)cccc23)c1OC` the T/C (dose: 6.25 mg/kg/injection, schedule: Q01DX009 (ip), vehicle: saline with Tween-80) was 185 % of control, the T/C [12] was 203 % of control and the T/C [6] was 87 % of control.

`Cn1c2c(sc1=O)CCC2` was tested, and the T/C [5] was 113 % of control, the T/C [1] was 100 % of control and the T/C [2] was 97 % of control.

With `Nc1ncnc2c1c1c(=O)[nH]cnc1n2C1OC(CO)C(O)C1O` (centres undefined) the T/C [5] was 86 % of control.

In the case of `COC(=O)/C(C#N)=N/O`, the T/C (dose: 9.37 mg/kg/injection, schedule: Q04DX003 (ip), vehicle: saline with Tween-80) was 95 % of control, the T/C (dose: 18.75 mg/kg/injection, schedule: Q04DX003 (ip), vehicle: saline with Tween-80) was 110 % of control and the T/C (dose: 37.5 mg/kg/injection, schedule: Q04DX003 (ip), vehicle: saline with Tween-80) was 100 % of control. For the same compound, the T/C (dose: 50.0 mg/kg/injection, schedule: Q01DX009 (ip), vehicle: saline) was 107 % of control, the T/C (dose: 75.0 mg/kg/injection, schedule: Q04DX003 (ip), vehicle: saline) was 91 % of control and the T/C [10] was 92 % of control.

For `ClC1C(Cl)C(Cl)C(Cl)C(Cl)C1Cl` (centres undefined), the T/C [11] was 95 % of control, the T/C [6] was 100 % of control and the T/C [5] was 105 % of control. For the same compound, the T/C [7] was 99 % of control, the T/C [1] was 93 % of control and the T/C [2] was 93 % of control. The T/C [9] was 96 % of control and the T/C (dose: 400.0 mg/kg/injection, schedule: Q01DX009 (ip), vehicle: saline with Tween-80) was 89 % of control.

For `c1cc[c]([Pb]([c]2ccccc2)([c]2ccccc2)[n]2ccc3ccccc32)cc1`, the T/C (dose: 2.08 mg/kg/injection, schedule: Q01DX009 (ip), vehicle: saline with Tween-80) was 102 % of control and the T/C (dose: 3.12 mg/kg/injection, schedule: Q01DX009 (ip), vehicle: saline with Tween-80) was 97 % of control.

`Cn1c(C(Cl)Cl)nc2ccccc2c1=O` was tested, and the T/C [12] was 110 % of control, the T/C [6] was 105 % of control and the T/C [7] was 105 % of control.

For `CP(=S)(c1ccccc1)P(C)(=S)c1ccccc1` (centres undefined), the T/C [2] was 119 % of control.

For `CCCCCCCCCCCC(=O)CC`, the T/C [4] was 96 % of control and the T/C (dose: 200.0 mg/kg/injection, schedule: Q01DX009 (ip), vehicle: other) was 87 % of control.
